From patent US20210002689A1, “METHOD FOR DETECTING DIFFERENT PROPERTIES IN A MICROORGANISM POPULATION BY OPTICALLY INDUCED DIELECTROPHORETIC FORCE” (Chang Gung University, priority 2019, published 2021)
In brackets after ≈: the same amount, converted by molar mass.

How the values were obtained:
[1] = tested on: Staphylococcus aureus strains; test: Vancomycin Etest; format: cell-based; settings: 125 clinical Staphylococcus aureus strains selected for PAP-AUC (35 hVISA, 90 VSSA); read-out: minimal inhibition concentration
Description: Firstly, the microorganism sample solution 10 is cultured on a blood agar plate. Next, the microorganism sample solution 10 is cultured in 5% carbon dioxide concentration and 37° C. for 16-18 hours. After being cultured, a single strain group is taken from the blood agar plate and is subjected to a matrix-assisted laser desorption ionization time-of-flight (MALDI-TOF) for strains identification. With respect to selecting strains to be identified as Staphylococcus aureus strains, Vancomycin Etest is used in which 125 strains having a minimal inhibition concentration of 2-4 μg/mL are selected for PAP-AUC.

E. coli ATCC® 25922 [2] = test: ODEP force analysis after subjecting to ampicillin; format: cell-based, Escherichia coli; settings: ampicillin of gradually increased concentration (up to 16 μg/ml), cultured 1.5 hours, FIG. 5
Excerpt: (§1) Referring to FIG. 1 again, after E. coli ATCC® 35218 and E. coli ATCC® 25922 have been activated, they are made into solutions having bacteria for subsequent antibiotics processing. Steps of making solutions having bacteria are described in detail below: selecting a plurality of activated large E. coli strains; dissolving it in normal saline which is a solution of sodium chloride at 0.9% concentration; adjusting its turbidity to 0.5 McFarland to make the microorganism sample solution 10; in each solution having bacteria, adding different amounts of ampicillin antibiotics powder to make a solution having antibiotics concentration of 0 μg/ml, 4 μg/ml, 8 μg/ml or 16 μg/ml, and finally, culturing each solution of different antibiotics concentration in 5% carbon dioxide concentration and 37° C. for 1.5 hours to make the microorganism sample solution to be tested 14.
(§2) Referring to FIGS. 1 to 4 again, an injection pump is used to inject the microorganism sample solution to be tested 14 into the ODEP device 20 via the sample injection hole 221. Electrical properties (e.g., conduction or polarizability) differences are generated because E. coli ATCC® 35218 and E. coli ATCC® 25922 in the microorganism sample solution to be tested 14 have been subjected to ampicillin. […]

E. coli ATCC® 35218 [3] = test: ODEP force analysis after subjecting to ampicillin; format: cell-based, Escherichia coli; settings: ampicillin 0, 4, 8 or 16 μg/ml, cultured 1.5 hours, FIG. 5
Excerpt: as §1, §2

E. coli ATCC® 25922 [4] = settings: cited from earlier work
E. coli ATCC® 35218 [5] = settings: cited from earlier work

Structure (SMILES) | MIC [1] | force generated by light (ODEP force) (E. coli ATCC® 25922 [2]) | force generated by light (ODEP force) (E. coli ATCC® 35218 [3]) | minimal inhibition concentration (E. coli ATCC® 25922 [4]) | minimal inhibition concentration (E. coli ATCC® 35218 [5])
CN[C@H](CC(C)C)C(=O)N[C@H]1C(=O)N[C@@H](CC(N)=O)C(=O)N[C@H]2C(=O)N[C@H]3C(=O)N[C@H](C(=O)N[C@H](C(=O)O)c4cc(O)cc(O)c4-c4cc3ccc4O)[C@H](O)c3ccc(c(Cl)c3)Oc3cc2cc(c3O[C@@H]2O[C@H](CO)[C@@H](O)[C@H](O)[C@H]2O[C@H]2C[C@](C)(N)[C@H](O)[C@H](C)O2)Oc2ccc(cc2Cl)[C@H]1O [Vancomycin] | 2 to 4 µg/mL (≈ 1.38 to 2.76 µM) |  |  |  | 
CC1(C)S[C@@H]2[C@H](NC(=O)[C@H](N)c3ccccc3)C(=O)N2[C@H]1C(=O)O [ampicillin] |  | 100 μm/sec | 220-260 μm/sec | 2 to 8 µg/mL | greater than 32 μg/ml
